Results: patent US20210045385A1, “PYRIDAZINONE-SUBSTITUTED KETOXIMES AS HERBICIDES” (FMC Corporation, priority 2018, published 2021)

Legend:
Assay type in all cases: in vivo
[1] = tested on: barnyardgrass (Echinochloa crus-galli); assay: Test C preemergence, visual plant response rating
Outline: (§1)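 Compounds in a non-phytotoxic solvent with surfactant were applied as a directed soil spray preemergence or to 2–10 cm, one- to two-leaf plants postemergence, in loam–sand soil. After about 10 d in a greenhouse, injury was visually rated against untreated controls on a 0–100 scale (100 = complete control).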

[2] = tested on: foxtail, giant (giant foxtail, Setaria faberi); assay: Test C preemergence, visual plant response rating
Outline: as §1

[3] = tested on: Italian ryegrass (Lolium mutiflorum); assay: Test C preemergence, visual plant response rating
Outline: as §1

[4] = tested on: ragweed (common ragweed, Ambrosia artemisiifolia); assay: Test C preemergence, visual plant response rating
Outline: as §1

[5] = tested on: pigweed (Amaranthus retroflexus); assay: Test C preemergence, visual plant response rating
Outline: as §1

kochia (Bassia scoparia) [6] = assay: Test C preemergence, visual plant response rating
Outline: as §1

[7] = tested on: barnyardgrass (Echinochloa crus-galli); assay: Test C postemergence, visual plant response rating
Outline: as §1

[8] = tested on: foxtail, giant (giant foxtail, Setaria faberi); assay: Test C postemergence, visual plant response rating
Outline: as §1

corn (Zea mays) = assay: Test C postemergence, visual plant response rating
Outline: as §1

[9] = tested on: Italian ryegrass (Lolium mutiflorum); assay: Test C postemergence, visual plant response rating
Outline: as §1

[10] = tested on: ragweed (common ragweed, Ambrosia artemisiifolia); assay: Test C postemergence, visual plant response rating
Outline: as §1

[11] = tested on: galium (catchweed bedstraw, Galium aparine); assay: Test C postemergence, visual plant response rating
Outline: as §1

[12] = tested on: wheat (Triticum aestivum); assay: Test C postemergence, visual plant response rating
Outline: as §1

[13] = tested on: blackgrass (Alopecurus myosuroides); assay: Test C postemergence, visual plant response rating
Outline: as §1

[14] = tested on: pigweed (Amaranthus retroflexus); assay: Test C postemergence, visual plant response rating
Outline: as §1

kochia (Bassia scoparia) [15] = assay: Test C postemergence, visual plant response rating
Outline: as §1

[16] = tested on: barnyardgrass (Echinochloa crus-galli); assay: Test D flooded paddy test, visual plant response rating; settings: 250 g ai/ha, scale 0 to 100 (0 no effect, 100 complete control), 13 to 15 d
Outline: (§2)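 Plants were grown to the 2-leaf stage, pots flooded to 3 cm above soil, and compound applied directly into the paddy water, with the depth held throughout. After 13 to 15 d in a greenhouse, response was rated visually against untreated controls on a 0–100 scale (0 no effect, 100 complete control).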

rice (Oryza sativa) = assay: as above; settings: 250 g ai/ha, scale 0 to 100 (0 no effect, 100 complete control), 13 to 15 d
Outline: as §2

[17] = tested on: duck salad (Heteranthera limosa); assay: as above; settings: 250 g ai/ha, scale 0 to 100 (0 no effect, 100 complete control), 13 to 15 d
Outline: as §2

[18] = tested on: sedge umbrella (small-flower umbrella sedge, Cyperus difformis); assay: as above; settings: 250 g ai/ha, scale 0 to 100 (0 no effect, 100 complete control), 13 to 15 d
Outline: as §2

[19] = Test C, 31 g ai/ha, 0 is no effect, 100 is complete control
[20] = Test C, postemergence, 125 g ai/ha
[21] = Test C, 125 g ai/ha, 0 is no effect, 100 is complete control

| Compound | Barnyardgrass plant response rating (0 to 100 scale) [1, 19] | Foxtail, Giant plant response rating (0 to 100 scale) [2, 19] | Ryegrass, Italian plant response rating (0 to 100 scale) [3, 19] | Pigweed plant response rating (0 to 100 scale) [5, 19] | Kochia plant response rating (0 to 100 scale) (kochia (Bassia scoparia) [6]; [19]) | Barnyardgrass plant response rating (0 to 100 scale) ([7]; Postemergence, 31 g ai/ha) | Barnyardgrass plant response rating (0 to 100 scale) [7, 20] | Foxtail, Giant plant response rating (0 to 100 scale) ([8]; Postemergence, 31 g ai/ha) | Foxtail, Giant plant response rating (0 to 100 scale) [8, 20] | Corn plant response rating (0 to 100 scale) (corn (Zea mays); Postemergence, 31 g ai/ha) | Corn plant response rating (0 to 100 scale) (corn (Zea mays); [20]) | Ryegrass, Italian plant response rating (0 to 100 scale) ([9]; Postemergence, 31 g ai/ha) | Ryegrass, Italian plant response rating (0 to 100 scale) [9, 20] | Ragweed plant response rating (0 to 100 scale) ([10]; Postemergence, 31 g ai/ha) | Ragweed plant response rating (0 to 100 scale) [10, 20] | Galium plant response rating (0 to 100 scale) ([11]; Postemergence, 31 g ai/ha) | Galium plant response rating (0 to 100 scale) [11, 20] | Wheat plant response rating (0 to 100 scale) ([12]; Postemergence, 31 g ai/ha) | Wheat plant response rating (0 to 100 scale) [12, 20] | Blackgrass plant response rating (0 to 100 scale) ([13]; Postemergence, 31 g ai/ha) | further results |
| --- | --- | --- | --- | --- | --- | --- | --- | --- | --- | --- | --- | --- | --- | --- | --- | --- | --- | --- | --- | --- | --- |
| CO/N=C(/c1cc(Cl)cc(OC)c1)c1c(O)c(C)nn(C)c1=O [Compound 165] | 60 | 60 | 80 | 0 | 80 | 40 | 80 | 20 | 70 | 0 | 20 | 70 | 100 | 80 | 100 | 100 | 100 | 0 | 30 | 20 | Barnyardgrass plant response rating (0 to 100 scale) ([1]; 125 g ai/ha): 80; Foxtail, Giant plant response rating (0 to 100 scale) ([2]; 125 g ai/ha): 70; Ryegrass, Italian plant response rating (0 to 100 scale) ([3]; 125 g ai/ha): 100; Ragweed plant response rating (0 to 100 scale) ([4]; 125 g ai/ha): 90; Ragweed plant response rating (0 to 100 scale) [4, 19]: 50; Pigweed plant response rating (0 to 100 scale) ([5]; 125 g ai/ha): 20; Kochia plant response rating (0 to 100 scale) (kochia (Bassia scoparia) [6]; 125 g ai/ha): 100; Blackgrass plant response rating (0 to 100 scale) [13, 20]: 40; Pigweed plant response rating (0 to 100 scale) ([14]; Postemergence, 31 g ai/ha): 40; Pigweed plant response rating (0 to 100 scale) [14, 20]: 70; Kochia plant response rating (0 to 100 scale) (kochia (Bassia scoparia) [15]; Postemergence, 31 g ai/ha): 90; Kochia plant response rating (0 to 100 scale) (kochia (Bassia scoparia) [15]; [20]): 90; Plant response rating, Barnyardgrass (Flood) [16]: 0; Plant response rating, Rice (Flood) (rice (Oryza sativa)): 0; Plant response rating, Ducksalad (Flood) [17]: 0; Plant response rating, Sedge, Umbrella (Flood) [18]: 0 |
| CCO/N=C(/c1c(O)c(Cl)nn(C)c1=O)c1cc(Br)cc2ccccc12 [Compound 236] | 90 | 80 | 0 | 10 | 0 | 70 | 90 | 60 | 90 | 20 | 30 | 0 | 20 | 100 | 100 | 90 | 100 | 0 | 0 | 0 | Barnyardgrass plant response rating (0 to 100 scale) [1, 21]: 90; Foxtail, Giant plant response rating (0 to 100 scale) [2, 21]: 100; Ryegrass, Italian plant response rating (0 to 100 scale) [3, 21]: 20; Pigweed plant response rating (0 to 100 scale) [5, 21]: 70; Kochia plant response rating (0 to 100 scale) (kochia (Bassia scoparia) [6]; [21]): 40; Blackgrass plant response rating (0 to 100 scale) [13, 20]: 30; Pigweed plant response rating (0 to 100 scale) ([14]; Postemergence, 31 g ai/ha): 20; Pigweed plant response rating (0 to 100 scale) [14, 20]: 60; Kochia plant response rating (0 to 100 scale) (kochia (Bassia scoparia) [15]; Postemergence, 31 g ai/ha): 30; Kochia plant response rating (0 to 100 scale) (kochia (Bassia scoparia) [15]; [20]): 50; Plant response rating, Barnyardgrass (Flood) [16]: 35; Plant response rating, Rice (Flood) (rice (Oryza sativa)): 0; Plant response rating, Ducksalad (Flood) [17]: 70; Plant response rating, Sedge, Umbrella (Flood) [18]: 85 |
| CCON=C(c1cc(Cl)cc(Br)c1)c1c(O)c(C)nn(C)c1=O [Compound 180] | 0 | 70 | 40 | 50 | 0 | 30 | 60 | 70 | 90 | 0 | 20 | 70 | 100 | 100 | 100 | 90 | 100 | 30 | 50 | 0 | Barnyardgrass plant response rating (0 to 100 scale) ([1]; 125 g ai/ha): 80; Foxtail, Giant plant response rating (0 to 100 scale) ([2]; 125 g ai/ha): 100; Ryegrass, Italian plant response rating (0 to 100 scale) ([3]; 125 g ai/ha): 100; Pigweed plant response rating (0 to 100 scale) ([5]; 125 g ai/ha): 80; Kochia plant response rating (0 to 100 scale) (kochia (Bassia scoparia) [6]; 125 g ai/ha): 100; Blackgrass plant response rating (0 to 100 scale) [13, 20]: 30; Pigweed plant response rating (0 to 100 scale) ([14]; Postemergence, 31 g ai/ha): 10; Pigweed plant response rating (0 to 100 scale) [14, 20]: 70; Kochia plant response rating (0 to 100 scale) (kochia (Bassia scoparia) [15]; Postemergence, 31 g ai/ha): 80; Kochia plant response rating (0 to 100 scale) (kochia (Bassia scoparia) [15]; [20]): 90; Plant response rating, Barnyardgrass (Flood) [16]: 40; Plant response rating, Rice (Flood) (rice (Oryza sativa)): 0; Plant response rating, Ducksalad (Flood) [17]: 60; Plant response rating, Sedge, Umbrella (Flood) [18]: 65 |
| C#CCO/N=C(\c1cc(Cl)cc(Cl)c1Cl)c1c(O)c(C)nn(C)c1=O [Compound 187] | 70 | 80 | 40 | 60 | 0 | 30 | 70 | 50 | 80 | 0 | 20 | 70 | 100 | 90 | 100 | 80 | 100 | 0 | 50 | 0 | Barnyardgrass plant response rating (0 to 100 scale) ([1]; 125 g ai/ha): 100; Foxtail, Giant plant response rating (0 to 100 scale) ([2]; 125 g ai/ha): 100; Ryegrass, Italian plant response rating (0 to 100 scale) ([3]; 125 g ai/ha): 100; Pigweed plant response rating (0 to 100 scale) ([5]; 125 g ai/ha): 90; Kochia plant response rating (0 to 100 scale) (kochia (Bassia scoparia) [6]; 125 g ai/ha): 90; Blackgrass plant response rating (0 to 100 scale) [13, 20]: 0; Pigweed plant response rating (0 to 100 scale) ([14]; Postemergence, 31 g ai/ha): 20; Pigweed plant response rating (0 to 100 scale) [14, 20]: 70; Kochia plant response rating (0 to 100 scale) (kochia (Bassia scoparia) [15]; Postemergence, 31 g ai/ha): 40; Kochia plant response rating (0 to 100 scale) (kochia (Bassia scoparia) [15]; [20]): 70; Plant response rating, Barnyardgrass (Flood) [16]: 35; Plant response rating, Rice (Flood) (rice (Oryza sativa)): 15; Plant response rating, Ducksalad (Flood) [17]: 75; Plant response rating, Sedge, Umbrella (Flood) [18]: 60 |
